From patent US20240252488A1 (KOREA RESEARCH INSTITUTE OF CHEMICAL TECHNOLOGY, priority 2020, published 2024)

Tests used:
[1] = biological target: T1, MLKL (Homo sapiens, UniProt Q8NB16); assay: Measurement of binding affinity with MLKL receptor (competitive binding assay, Kd); parameters: made in house; host or cells: HEK 293 cell line (T7 phage in E. coli BL21-derived host is also described)
T1 sequence (Q8NB16 1-471): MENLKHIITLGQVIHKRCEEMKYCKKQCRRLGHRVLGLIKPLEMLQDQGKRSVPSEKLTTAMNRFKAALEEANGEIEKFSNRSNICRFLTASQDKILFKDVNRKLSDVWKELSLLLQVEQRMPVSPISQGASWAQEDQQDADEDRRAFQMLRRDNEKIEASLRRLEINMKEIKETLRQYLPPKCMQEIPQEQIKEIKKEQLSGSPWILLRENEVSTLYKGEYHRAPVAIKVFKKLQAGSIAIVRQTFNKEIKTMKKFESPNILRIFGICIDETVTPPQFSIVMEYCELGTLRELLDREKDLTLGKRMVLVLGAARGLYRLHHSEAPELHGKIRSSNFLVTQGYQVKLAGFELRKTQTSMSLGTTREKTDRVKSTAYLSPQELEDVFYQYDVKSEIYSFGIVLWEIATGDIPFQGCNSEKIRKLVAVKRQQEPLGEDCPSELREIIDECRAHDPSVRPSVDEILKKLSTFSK
Method in brief: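 MLKL was produced in HEK 293 cells and tagged with DNA for detection. Liganded beads were blocked with excess biotin and washed to cut non-specific binding, then compounds (111× DMSO stocks, 0.9% DMSO in assay) competed for binding. Eluate kinase was measured by qPCR for Kd.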

[2] = system: FADD−/− Jurkat cells; assay: Necroptosis inhibition assay, TNF-α-induced necroptosis (CellTiter-Glo 2.0); format: cell-based, human; conditions: TNF-α 15 ng/mL; for Necroptosis inhibition assay (Rescue %) 1 μM: compound 1 μM; for Necroptosis inhibition assay (Rescue %) 10 μM: compound 10 μM
Method in brief: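 Necroptosis was triggered by TNF-α at 15 ng/mL final following 30 minutes of compound exposure (0.1, 1 or 10 μM final). Incubation ran 20 to 24 hours at 37° C under 5% CO2; cell ATP was then quantified by luminescence.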

| Kd [1] | Compound | Necroptosis inhibition assay (Rescue %) 1 μM [2] | Necroptosis inhibition assay (Rescue %) 10 μM [2] |
| --- | --- | --- | --- |
| 0.0046 µM | Nc1ncc(-c2cnn(C3CCN(CCOCCOCCNc4cccc5c4C(=O)N(C4CCC(=O)NC4=O)C5=O)CC3)c2)nc1C(=O)O[C@@H](C(=O)Nc1ccc(F)cc1)c1ccccc1 (stereo partly drawn) [TDH-121, (R)-2-((4-fluorophenyl)amino)-2-oxo-1-phenylethyl 3-amino-6-(1-(1-(2-(2-(2-((2-(2,6-dioxopiperidin-3-yl)-1,3-dioxoisoindolin-4-yl)amino)ethoxy)ethoxy)ethyl)piperidin-4-yl)-1H-pyrazol-4-yl)pyrazine-2-carboxylate] | 2.96% |  |
| 0.0018 µM | Nc1ncc(-c2cnn(C3CCN(CCOCCOCCNc4ccc5c(c4)C(=O)N(C4CCC(=O)NC4=O)C5=O)CC3)c2)nc1C(=O)O[C@@H](C(=O)Nc1ccc(F)cc1)c1ccccc1 (stereo partly drawn) [TDH-122, (R)-2-((4-fluorophenyl)amino)-2-oxo-1-phenylethyl 3-amino-6-(1-(1-(2-(2-(2-((2-(2,6-dioxopiperidin-3-yl)-1,3-dioxoisoindolin-5-yl)amino)ethoxy)ethoxy)ethyl)piperidin-4-yl)-1H-pyrazol-4-yl)pyrazine-2-carboxylate] | 20.17% |  |
| 0.00089 µM | Nc1ncc(-c2cnn(C3CCN(C(=O)CCCCCNC(=O)CNc4ccc5c(c4)C(=O)N(C4CCC(=O)NC4=O)C5=O)CC3)c2)nc1C(=O)O[C@@H](C(=O)Nc1ccc(F)cc1)c1ccccc1 (stereo partly drawn) [TDH-123, (R)-2-((4-fluorophenyl)amino)-2-oxo-1-phenylethyl 3-amino-6-(1-(1-(6-(2-((2-(2,6-dioxopiperidin-3-yl)-1,3-dioxoisoindolin-5-yl)amino)acetamido)hexanoyl)piperidin-4-yl)-1H-pyrazol-4-yl)pyrazine-2-carboxylate] | 8.69% | 8.92% |
| 0.0094 µM | Nc1ncc(-c2cnn(C3CCN(CCCCCCCCCCNc4ccc5c(c4)C(=O)N(C4CCC(=O)NC4=O)C5=O)CC3)c2)nc1C(=O)O[C@@H](C(=O)Nc1ccc(F)cc1)c1ccccc1 (stereo partly drawn) [TDH-160, (R)-2-((4-fluorophenyl)amino)-2-oxo-1-phenylethyl 3-amino-6-(1-(1-(10-((2-(2,6-dioxopiperidin-3-yl)-1,3-dioxoisoindolin-5-yl)amino)decyl)piperidin-4-yl)-1H-pyrazol-4-yl)pyrazine-2-carboxylate] | 3.59% |  |
| 0.029 µM | Nc1ncc(-c2cnn(C3CCN(CCCCCCCCCCNC(=O)CNc4cccc5c4C(=O)N(C4CCC(=O)NC4=O)C5=O)CC3)c2)nc1C(=O)O[C@@H](C(=O)Nc1ccc(F)cc1)c1ccccc1 (stereo partly drawn) [TDH-161, (R)-2-((4-fluorophenyl)amino)-2-oxo-1-phenylethyl 3-amino-6-(1-(1-(10-(2-((2-(2,6-dioxopiperidin-3-yl)-1,3-dioxoisoindolin-4-yl)amino)acetamido)decyl)piperidin-4-yl)-1H-pyrazol-4-yl)pyrazine-2-carboxylate] | 25.81% | 35.81% |
| 0.011 µM | Nc1ncc(-c2cnn(C3CCN(CCCCCCCCCCNC(=O)CNc4ccc5c(c4)C(=O)N(C4CCC(=O)NC4=O)C5=O)CC3)c2)nc1C(=O)O[C@@H](C(=O)Nc1ccc(F)cc1)c1ccccc1 (stereo partly drawn) [TDH-162, (R)-2-((4-fluorophenyl)amino)-2-oxo-1-phenylethyl 3-amino-6-(1-(1-(10-(2-((2-(2,6-dioxopiperidin-3-yl)-1,3-dioxoisoindolin-5-yl)amino)acetamido)decyl)piperidin-4-yl)-1H-pyrazol-4-yl)pyrazine-2-carboxylate] | 36.55% | 26.25% |
| 0.045 µM | Nc1ncc(-c2cnn(C3CCN(CCCCCCCCCCNC(=O)COc4cccc5c4C(=O)N(C4CCC(=O)NC4=O)C5=O)CC3)c2)nc1C(=O)O[C@@H](C(=O)Nc1ccc(F)cc1)c1ccccc1 (stereo partly drawn) [TDH-163, (R)-2-((4-fluorophenyl)amino)-2-oxo-1-phenylethyl 3-amino-6-(1-(1-(10-(2-((2-(2,6-dioxopiperidin-3-yl)-1,3-dioxoisoindolin-4-yl)oxy)acetamido)decyl)piperidin-4-yl)-1H-pyrazol-4-yl)pyrazine-2-carboxylate] | 30.03% | 28.56% |
| 0.0061 µM | Nc1ncc(-c2cnn(C3CCN(C(=O)COCCOCCNC(=O)C4CN(c5cccc6c5C(=O)N(C5CCC(=O)NC5=O)C6=O)C4)CC3)c2)nc1C(=O)O[C@@H](C(=O)Nc1ccc(F)cc1)c1ccccc1 (stereo partly drawn) [TDH-192, (R)-2-((4-fluorophenyl)amino)-2-oxo-1-phenylethyl 3-amino-6-(1-(1-(2-(2-(2-(1-(2-(2,6-dioxopiperidin-3-yl)-1,3-dioxoisoindolin-4-yl)azetidine-3-carboxamido)ethoxy)ethoxy)acetyl)piperidin-4-yl)-1H-pyrazol-4-yl)pyrazine-2-carboxylate] | 50.37% | 45.32% |
| 0.35 µM | Nc1ncc(-c2cnn(C3CCN(CC4CCN(c5cccc6c5C(=O)N(C5CCC(=O)NC5=O)C6=O)CC4)CC3)c2)nc1C(=O)N[C@@H](C(=O)Nc1ccc(F)cc1)c1ccccc1 (stereo partly drawn) [TDH-208, 3-amino-6-(1-(1-((1-(2-(2,6-dioxopiperidin-3-yl)-1,3-dioxoisoindolin-4-yl)piperidin-4-yl)methyl)piperidin-4-yl)-1H-pyrazol-4-yl)-N-((R)-2-((4-fluorophenyl)amino)-2-oxo-1-phenylethyl)pyrazine-2-carboxamide] |  | 15.28% |
| 0.3 µM | Nc1ncc(-c2cnn(C3CCN(CC4CCN(C(=O)C5CCN(c6ccc7c(c6)C(=O)N(C6CCC(=O)NC6=O)C7=O)CC5)CC4)CC3)c2)nc1C(=O)N[C@@H](C(=O)Nc1ccc(F)cc1)c1ccccc1 (stereo partly drawn) [TDH-210, 3-amino-6-(1-(1-((1-(1-(2-(2,6-dioxopiperidin-3-yl)-1,3-dioxoisoindolin-5-yl)piperidine-4-carbonyl)piperidin-4-yl)methyl)piperidin-4-yl)-1H-pyrazol-4-yl)-N-((R)-2-((4-fluorophenyl)amino)-2-oxo-1-phenylethyl)pyrazine-2-carboxamide] | 7.5% | 10.08% |
| 0.011 µM | Cc1ncsc1-c1ccc(CNC(=O)[C@@H]2C[C@@H](O)CN2C(=O)[C@@H](NC(=O)CCC(=O)N2CCC(CN3CCC(n4cc(-c5cnc(N)c(C(=O)O[C@@H](C(=O)Nc6ccc(F)cc6)c6ccccc6)n5)cn4)CC3)CC2)C(C)(C)C)cc1 [TDH-212, (R)-2-((4-fluorophenyl)amino)-2-oxo-1-phenylethyl 3-amino-6-(1-(1-((1-(4-(((S)-1-((2S,4R)-4-hydroxy-2-((4-(4-methylthiazol-5-yl)benzyl)carbamoyl)pyrrolidin-1-yl)-3,3-dimethyl-1-oxobutan-2-yl)amino)-4-oxobutanoyl)piperidin-4-yl)methyl)piperidin-4-yl)-1H-pyrazol-4-yl)pyrazine-2-carboxylate] | 24.34% | 49.14% |
| 0.18 µM | Nc1ncc(-c2cnn(C3CCN(CCOCCOCCNC(=O)C4CCN(c5ccc6c(c5)C(=O)N(C5CCC(=O)NC5=O)C6=O)CC4)CC3)c2)nc1C(=O)N[C@@H](C(=O)Nc1ccc(F)cc1)c1ccccc1 (stereo partly drawn) [TDH-214, 3-amino-6-(1-(1-(2-(2-(2-(1-(2-(2,6-dioxopiperidin-3-yl)-1,3-dioxoisoindolin-5-yl)piperidine-4-carboxamido)ethoxy)ethoxy)ethyl)piperidin-4-yl)-1H-pyrazol-4-yl)-N-((R)-2-((4-fluorophenyl)amino)-2-oxo-1-phenylethyl)pyrazine-2-carboxamide] | 26.74% | 48.41% |
| 0.091 µM | Nc1ncc(-c2cnn(C3CCN(CCOCCOCCNc4cccc5c4C(=O)N(C4CCC(=O)NC4=O)C5=O)CC3)c2)nc1C(=O)N[C@@H](C(=O)Nc1ccc(F)cc1)c1ccccc1 (stereo partly drawn) [TDH-215, 3-amino-6-(1-(1-(2-(2-(2-((2-(2,6-dioxopiperidin-3-yl)-1,3-dioxoisoindolin-4-yl)amino)ethoxy)ethoxy)ethyl)piperidin-4-yl)-1H-pyrazol-4-yl)-N-((R)-2-((4-fluorophenyl)amino)-2-oxo-1-phenylethyl)pyrazine-2-carboxamide] | 15.33% | 21.83% |
| 0.043 µM | Nc1ncc(-c2cnn(C3CCN(CCOCCOCCNc4ccc5c(c4)C(=O)N(C4CCC(=O)NC4=O)C5=O)CC3)c2)nc1C(=O)N[C@@H](C(=O)Nc1ccc(F)cc1)c1ccccc1 (stereo partly drawn) [TDH-216, 3-amino-6-(1-(1-(2-(2-(2-((2-(2,6-dioxopiperidin-3-yl)-1,3-dioxoisoindolin-5-yl)amino)ethoxy)ethoxy)ethyl)piperidin-4-yl)-1H-pyrazol-4-yl)-N-((R)-2-((4-fluorophenyl)amino)-2-oxo-1-phenylethyl)pyrazine-2-carboxamide] | 21.7% | 38.63% |
